US9441018B2, “Gene from tidal flat metagenome and a novel protein displaying both phospholipase and lipase activities” (KOREA RESEARCH INSTITUTE OF BIOSCIENCE AND BIOTECHNOLOGY, priority 2011, dated 2016)
Values joined by “and” are separate entries in the source; they are usually repeats but may differ in a detail not shown here. Equal values may be shown once. Read-outs that look alike come from different tables or passages of the source.

Key:
[1] = tested on: phospholipase/lipase MPIaG; assay type: biochemical, tidal flat metagenome
[2] = tested on: phospholipase/lipase MPIaG
Method: Particularly, enzyme activity was measured by the following two methods. […] The second method was spectrophotometric assay as standard method of the present invention. […] The increasing rate of para-nitrophenol hydrolyzed from the substrate was continuously measured at OD405. Unless informed otherwise, p-nitrophenyl caprate (C10) was used as a substrate. 1 unit (U) of enzyme was defined as the enzyme amount capable of producing 1 μmol of para-nitrophenol via hydrolysis.

| SMILES | Enzyme activity relative value (%) ([1]; additive 1 mM) | Enzyme activity relative value (%) ([1]; additive 5 mM) | Enzyme activity relative value (%) ([1]; additive 10 mM) | Enzyme activity relative value (%) ([2]; organic solvent 20%) | Enzyme activity relative value (%) ([2]; organic solvent 30%) | Enzyme activity relative value (%) ([2]; organic solvent 50%) | Enzyme activity relative value (%) ([2]; organic solvent 60%) | also measured |
| --- | --- | --- | --- | --- | --- | --- | --- | --- |
| O[C@H](CS)[C@H](O)CS (racemic) [DTT, dithiothreitol] | 93 | 107 | 105 |  |  |  |  |  |
| OCCS [2-mercaptoethanol] | 105 | 108 | 80 |  |  |  |  |  |
| CC(C)O [2-propanol] |  |  |  | 101 | 97 | 96 | 99 |  |
| CC(C)=O [Acetone] |  |  |  | 96 | 100 | 96 | 99 |  |
| CC#N [Acetonitrile] |  |  |  | 100 | 99 | 98 | 99 |  |
| [Ca+2].[Cl-].[Cl-] [CaCl2] | 466 | 1015 | 994 |  |  |  |  | increase of enzyme activities [1]: approximately 10 times |
| [Cl-].[Cl-].[Co+2] [CoCl2] |  |  |  |  |  |  |  | Enzyme activity relative value (%) [1]: 120% and 177% and 116% |
| [Cl][Cu][Cl] [CuCl2] | 135 | 32 | 11 |  |  |  |  |  |
| CN(C)C=O [DMF, dimethylformamide] |  |  |  | 99 | 100 | 93 | 98 |  |
| C[S+](C)[O-] [DMSO, dimethyl sulfoxide] |  |  |  | 98 | 97 | 98 | 81 |  |
| O=C(O)CN(CCN(CC(=O)O)CC(=O)O)CC(=O)O [EDTA, ethylenediaminetetraacetic acid] |  |  |  |  |  |  |  | effect on enzyme activities (in words) [1]: strongly inhibited |
| CCO [Ethanol] |  |  |  | 100 | 95 | 94 | 98 |  |
| O=S(=O)([O-])[O-].[Fe+2] [FeSO4] | 137 | 142 | 151 |  |  |  |  |  |
| CO [Methanol] |  |  |  | 100 | 101 | 93 | 98 |  |
| [Cl-].[Cl-].[Mg+2] [MgCl2] | 105 | 198 | 142 |  |  |  |  |  |
| [Cl][Ni][Cl] [NiCl2] | 62 | 23 | 7 |  |  |  |  |  |
| O=S(=O)(F)Cc1ccccc1 [PMSF, phenyl methyl sulfonyl fluoride] | 94 | 107 | 105 |  |  |  |  |  |
| [Cl-].[Cl-].[Zn+2] [ZnCl2] | 107 | 9 | 5 |  |  |  |  |  |
